In patent US20240424053A1, “METHODS AND COMPOSITIONS FOR PROVIDING MYOCARDIAL PROTECTION AND TREATING MYOCARDIAL STRESS AND FIBROSIS” (Tufts Medical Center, Inc., priority 2021, published 2024):
Entries after “also recorded” stand apart in the source; their conditions may differ. Where a SMILES comes first, the peptide text is derived from it. The star is where a group is joined. Palmitoyl = CCCCCCCCCCCCCCCC(=O)*

What was measured:
PAR1 [1] = target: T1, PAR1 (Mus musculus, UniProt P30558); assay: echocardiography after 3 days reperfusion following 30 min myocardial ischemia in mice; format: in vivo; conditions: 10 mg/kg sc once daily, n=4
T1 construct: endogenous in cells; host or cells: male C57BL/6N mice, in vivo
T1 sequence (P30558 22-430): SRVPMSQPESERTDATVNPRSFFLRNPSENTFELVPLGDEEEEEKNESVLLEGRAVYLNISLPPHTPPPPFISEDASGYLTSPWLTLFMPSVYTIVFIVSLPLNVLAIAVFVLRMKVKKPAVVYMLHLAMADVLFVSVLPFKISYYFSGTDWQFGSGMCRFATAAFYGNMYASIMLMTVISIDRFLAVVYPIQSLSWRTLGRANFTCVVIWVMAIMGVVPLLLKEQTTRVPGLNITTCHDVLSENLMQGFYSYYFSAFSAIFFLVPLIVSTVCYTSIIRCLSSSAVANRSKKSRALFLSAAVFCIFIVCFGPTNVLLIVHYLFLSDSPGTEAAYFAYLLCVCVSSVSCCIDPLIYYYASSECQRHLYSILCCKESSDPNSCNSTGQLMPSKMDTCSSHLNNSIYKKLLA
Experimental: A role of PAR1 in directly mediating cardiac ischemic myonecrosis—independent of established platelet-dependent effects (Strande et al., Basic Res. Cardiol. 102(4):350-358, 2007)—was also examined. […] Mice (n=7) were treated with vehicle or 10 mg/kg PZ-128 (subcutaneous; sc) just prior to ischemic injury. As shown in FIG. 1a-d, PZ-128-treated mice had 51-62% reductions in mean cardiac Infarct Area (p<0.01), Area At Risk (p<0.01), and Total Ischemic Area (p<0.0001) compared to vehicle-treated mice. […] Using echocardiography after 3 days of reperfusion, there was a significant increase in left ventricular mass (p<0.05) in vehicle compared to PZ-128 treated cohorts, with no difference in left ventricular mass between baseline and 3 days in the PZ-128 cohort (FIG. 2). […] Previous pharmacokinetic studies of subcutaneously administered PZ-128 in mice were the basis of this 10 mg/kg dose in mice (Cisowski et al., Am. J. Pathol. 179(1):513-523, 2011), selected to match the 0.3-0.5 mg/kg doses administered in humans.
A subset of male C57BL6N mice from each group subjected to 30 min left coronary artery ischemia (FIGS. 1A-1E) were reperfused for 3 days (n=4 vehicle, n=4 10 mg/kg PZ-128 sc once daily).

PAR1 [2] = target: T1, PAR1; assay: thoracic aortic constriction (TAC) LV pressure overload model of HFrEF in mice; format: in vivo
Experimental: Male C57BL/6N mice were treated daily for 7 weeks with vehicle or 10 mg/kg PZ-128 sc following 25G transaortic constriction (TAC) or sham surgery (Richards et al., Scientific Reports 9(1):5844, 2019) (n=5-7). (FIG. 4A) Photomicrographs of interstitial fibrosis in cardiac sections stained with sirius red from Sham and TAC animals treated with Veh or PZ-128. (FIG. 4B) Interstitial collagen area from animals in A was quantified along with (FIG. 4C) Col1a1 expression by Q-PCR. (FIGS. 4D-4E) LV fractional shortening and ejection fraction were quantified by ECHO. (FIG. 4F) The outline of cardiomyocytes was identified by wheat germ agglutinin (WGA-green) staining with (FIG. 4G) mean myocyte area digitally quantified. (FIG. 4H) Mean weight (mg) of LV normalized to tibia length (mm).
(FIG. 5A) Photomicrographs of CD11 b+monocytes/macrophages and CD4+ T cells in Sham vs TAC in mice treated with vehicle or PZ-128 as in FIGS. 4A-4H, with CD11 b staining area quantified in FIG. 5B and T cells quantified in FIG. 5C.
TAC vs Sham mice were treated for 7 weeks with vehicle or PZ-128, and cardiac fibrosis and LV hypertrophy indices measured. […] This may indicate that unlike upstream thrombin (Dong et al., Thromb. Res. 159:58-64, 2017) or factor Xa (Yurista et al., Cardiovasc. Drugs Ther. 35(5):953-963, 2021) blockade, inhibition of PAR1 may effectively suppress cardiac hypertrophy by reducing the total ventricular mass, potentially by reducing MMP1-PAR1 driven fibrosis/remodeling and cardiac fibroblast expansion.
To obtain additional data to support PAR1 as a potentially important contributor to HF pathogenesis via inflammation, we investigated the effect of PZ-128 on monocyte/macrophage and CD4+ T cells in the 7-week TAC LV pressure overload model. As shown in FIGS. 5A-5B, there was a marked amount of CD11 b+monocytes/macrophages in the cardiac tissue from the TAC animals which was suppressed by nearly 90% by PZ-128 treatment.

PAR1 [3] = target: T2, PAR1 (Homo sapiens, UniProt P25116); conditions: subjects with coronary artery disease; cited from earlier work
T2 construct: delivered intravenously in 100 patients with coronary artery disease (CAD) and acute coronary syndrome (ACS) undergoing cardiac catheterization; endogenous in cells; host or cells: patients of the TRIP-PCI trial (platelets ex vivo; whole body in vivo)
T2 sequence (P25116 22-425): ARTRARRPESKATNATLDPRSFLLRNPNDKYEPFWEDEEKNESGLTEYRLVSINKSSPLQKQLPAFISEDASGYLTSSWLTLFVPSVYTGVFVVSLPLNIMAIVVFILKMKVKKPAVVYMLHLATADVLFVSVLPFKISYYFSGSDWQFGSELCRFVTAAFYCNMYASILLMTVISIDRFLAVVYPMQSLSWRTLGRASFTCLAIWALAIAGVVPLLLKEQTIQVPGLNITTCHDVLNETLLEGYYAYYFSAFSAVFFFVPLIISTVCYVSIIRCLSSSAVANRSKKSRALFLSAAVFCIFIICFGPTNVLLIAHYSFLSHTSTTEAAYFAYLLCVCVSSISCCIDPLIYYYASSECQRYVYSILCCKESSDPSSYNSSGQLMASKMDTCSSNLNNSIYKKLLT

[4] = 7 weeks, Q-PCR relative to GAPDH mRNA, preliminary

With `CCCCCCCCCCCCCCCC(=O)N[C@@H](CCCCN)C(=O)N[C@@H](CCCCN)C(=O)N[C@@H](CO)C(=O)N[C@@H](CCCNC(=N)N)C(=O)N[C@@H](C)C(=O)N[C@@H](CC(C)C)C(=O)N[C@@H](Cc1ccccc1)C(N)=O` [PZ-128, Palmitate-KKSRALF-NH2] (Palmitoyl-KKSRALF-NH2) the “ejection fraction at 3 days compared to baseline” value (PAR1 [1]) was “no significant reductions; also recorded: maintained baseline”, the “fractional shortening at 3 days compared to baseline” value (PAR1 [1]) was “no significant reductions; also recorded: maintained baseline” and the “left ventricular mass, baseline vs 3 days” value (PAR1 [1]) was “no difference; also recorded: no significant differences”. The “LV mass (adjusted for tibia length)” value (PAR1 [2]; 10 mg/kg sc daily for 7 weeks) was “highly significant protective effect”, the “TAC-induced loss in ejection fraction by ECHO” value (PAR1 [2]; 10 mg/kg sc daily for 7 weeks) was “significant protective effects” and the “TAC-induced loss in fractional shortening by ECHO” value (PAR1 [2]; 10 mg/kg sc daily for 7 weeks) was “significant protective effects”. For the same molecule, the “interstitial collagen (cardiac fibrosis) relative to vehicle” value (PAR1 [2]; 10 mg/kg sc daily for 7 weeks) was “dramatic anti-fibrotic effects”, the “suppression of the increase in mean myocyte cross-sectional area” value (PAR1 [2]; 10 mg/kg sc daily for 7 weeks) was “no effect” and the “Col1A1 expression relative to vehicle” value (PAR1 [2]; 10 mg/kg sc daily for 7 weeks, Q-PCR) was “dramatic anti-fibrotic effects”. For the same molecule, the “suppression of CD11b+ monocytes/macrophages in cardiac tissue” value (PAR1 [2]; 7 weeks) was ~90%, the CTGF gene expression (PAR1 [2]; [4]) was “reduces expression” and the Cyr61 gene expression (PAR1 [2]; [4]) was “reduces expression”. The IL-6 gene expression (PAR1 [2]; [4]) was “reduces expression”, the TGFβ gene expression (PAR1 [2]; [4]) was “reduces expression” and the TNFα gene expression (PAR1 [2]; [4]) was “reduces expression”. The “T cell infiltration (CD4+)” value (PAR1 [2]; 7 weeks, vehicle mice significant increases) was “non-significant increases” and the “platelet activation and hemostasis in phase 1” value (PAR1 [3]) was “suppresses platelet activation without effects on hemostasis”.
